Reference: US20080207594A1, “Use of Gsk-3 Inhibitors for Preventing and Treating Pancreatic Autoimmune Disorders” (Davelogen Aktiengesellschaft, priority 2005, published 2008)
“Also recorded” adds a separate entry of the source.

Key:
primary rat beta cells = experiment: In vitro beta cell proliferation assay (Ki-67 / C-peptide staining of dispersed islets); type: cell-based; details: incubation 72 hours; for replication of primary rat beta cells, agent alone: FIG. 12, FIG. 14
Experimental: About 1.5×10^4 beta cells were inspected per experiment and the percentage of double positive cells was determined. The number of replicating beta cells is expressed relative to control cells maintained in 10% FCS (FIG. 9A). Prolactin treated cells served as a technical control. Identification of C-peptide and Ki67 double positive beta cells dispersed on adhesive slides was carried out by immunohistochemistry (FIG. 9B).
We investigated the growth promoting effects by monitoring the percentage of replicating beta cells in isolated rat islets. Replicating beta cells were identified by immunohistological staining of dispersed islets with antibodies against C-peptide, a fragment of proinsulin, and the cell division marker Ki-67.
Islets of Langerhans are isolated by standard Liberase digestion method from rat pancreata (Liberase™ Cl enzyme blend BMB Cat. # 1814-435, ROCHE).
Following the culture period the islets are dispersed gently by titration in Ca^2+ and Mg^2+ free PBS. […] The adherent islet cells are fixed and stained by standard immunofluorescence techniques for C-peptide, a fragment of proinsulin and Ki-67 a marker of proliferating cells.
An Olympus microscope equipped with an automatic image acquisition device (Olympus) is used for counting of C-peptide positive beta cells. Proliferating C-peptide/Ki-67 double positive beta cells are counted manually. Thereby the fraction of proliferating beta cells can be determined.

Pax4 [1] = experiment: Pax4 transcription in INS-1E insulinoma cells, quantitative RT-PCR; type: cell-based, rat; details: INS-1E cells; for stimulation of Pax4 transcription relative to activin A (in words): FIG. 16
Source text: The response of the Pax4 gene to test compounds was investigated in the rat insulinoma cell line INS-1E. INS-1E cells are known to express Pax4 and to upregulate Pax4 levels in response to the treatment with activin-A and betacellulin. In the search for novel beta cell mitogens and/or beta cell protective agents the inventors treated INS-1E cells with different test compounds.
Total RNA from 8×10^4 cells growing on 4 cm^2 surface area of a tissue culture dish was extracted using Qiagen RNAeasy kit according to the instructions of the manufacturer (Qiagen) and 2 μg was converted into cDNA. Primers for pax4, 18S RNA, and rat RNA polymerase II largest subunit (RPB1) were designed using the Primer Express 1.5 Software from Applied Biosystems and sequences can be obtained upon request. Quantitative real-time PCR was performed using Applied Biosystems SDS 7000 detection system. Amplifications from 2 independent experiments were performed in duplicate for each transcript and mean values were normalized to the mean value of the reference RNA 18S RNA.
Cells were seeded at a density of 2×10^4 cells per cm^2 6 to 8 days before the treatment with chemicals. During the growth period the medium was changed once. The cells were incubated for different periods of time with chemicals under serum-free conditions. The cells were harvested in Qiagen RNAeasy cell lysate buffer and immediately transferred to dry ice. The samples were stored at −20° C. until RNA isolation was carried out.
Cells were seeded at a density of 2×10^4 cells per cm^2 6 to 8 days before the treatment with chemicals. During the growth period the medium was changed once. The cells were incubated for different periods of time with chemicals under serum-free conditions. The cells were harvested in Qiagen RNA easy cell lysate buffer and immediately transferred to dry ice. The samples were stored at −20 degree until RNA isolation was carried out.

Pax4 [2] = experiment: Pax4 transcription in rat islets, quantitative RT-PCR; type: cell-based
Source text: The response of the Pax4 gene to two compounds was investigated in rat islets. […] No effects were observed on the expression levels of cyclophilin B and RNA polymerase II largest subunit (RPB1) indicating a specific regulation of the Pax4 gene.
Total RNA from 200 to 400 islets growing in wells with 4 cm^2 surface area of a tissue culture dish was isolated according to instruction of the manufacturer of Trizol™ reagent. To further purify the RNA and to remove remaining DNA contaminations RNA was treated with the Qiagen RNAeasy kit according to the instructions of the manufacturer (Qiagen) and about 1 μg was converted into cDNA. Primers for pax4, 18S RNA, and rat RNA polymerase II largest subunit (RPB1) were designed using the Primer Express 1.5 Software from Applied Biosystems. Quantitative real-time PCR was performed using Applied Biosystems SDS 7000 detection system. Amplifications from at least 2 independent experiments were performed in duplicate for each transcript and mean values were normalized to the mean value of the reference RNA 18S RNA.
Rat islets were isolated from Wistar rats and cultured as described (Brun et al., 2004, JCB; 167: 1123-1135). In brief, 10 ml ice-cold liberase solution (Roche) was injected into the pancreas via the common bile duct. After dissection the pancreas was incubated for 40 minutes at 37° C. and then further dissociated by repeated pipetting using a 10 ml pipette. Islets were isolated by applying digested tissue to a ficoll-gradient before they were manually picked using a stereomicroscope. Islets were placed in bacteriological wells and compounds were administered as indicated. Islets were harvested in Trizol™ and immediately transferred to dry ice. The samples were stored at −20° C. until RNA isolation was carried out.

INS-1E cells = experiment: Protection against apoptotic signals, nucleosomal fragmentation (cell death detection ELISA) and morphology; type: cell-based, rat
Experimental: FIG. 7: Determination of cytokine or high glucose and fatty acid induced Nucleosomal-fragmentation in INS-1 cells. To induce apoptosis INS-1 cells were exposed to the cytokines IL-1 beta at 4 ng/ml and IFN-gamma at 1 U/ml (Cyt. in figure A) or glucose at […] and palmitate at […] (Pal/Gluc in figure B) for 24 hours. 1 hour before the application of these reagents indicated cell samples were treated with 10 μM 1-Azakenpaullone (AzaP) or 15 μM NG-monomethyl-L-arginine monoacetate (L-NMMA) an inhibitor of the inducible nitric oxide synthase (iNOS). Apoptosis was assessed by determination of nucleosomal accumulation in the cytosolic extracts using a cell death detection ELISA kit. Nucleosomal release is expressed relative to untreated control cells (Co.).
FIG. 8: Cell morphology of treated cells was inspected by light microscopy. Cell morphologies of untreated (A), Pal/Gluc (B) and Pal/Gluc+AzaP (C) treated cells are shown.
The beta cell line INS-1E was used to investigate anti-apototic effects of the compounds of the invention on beta cells. Apotosis was induced by culturing cells with a cytokine combination (interleukine-1beta/interferon gamma) or with high concentrations of both glucose and palmitate. 1-Azakenpaullone strongly (60%) inhibited cytokine-induced apoptosis (FIG. 7A), with a weaker effect (25%) against glucolipotoxicity induced apoptosis (FIG. 7B). The state of the treated and untreated cells was analyzed by microscopy.
INS-1E cells were cultured as described (Merglen et al., (2004) Endocrinology; 145: 667-678). Cells were seeded at a density of 1×10^4 cells per 96-well in 96 well plates in 200 μl culture medium for 3 days. Then, cells were cultured for 1 day in 100 μl medium containing 1% FCS and 5 mM glucose. […] The rate of apoptosis was measured by the specific determination of mono- and oligonucleosomes in the cytoplasmic fraction of cell lysates using a cell death detection ELISA kit (ROCHE Cat. No. 1774425). The assay is based on a quantitative sandwich-enzyme-immunoassay-principle using mouse monoclonal anti-histone and anti-DNA peroxidase antibodies. […]

**Q.** With exendin-4 as the molecule, how does the “replication of primary rat beta cells, agent alone” value (shortened to “replication … agent alone”) (primary rat beta cells) read?
**A.** Its value is “trigger beta cell replication”.

**Q.** Which “replication … agent alone” value (primary rat beta cells) does the source give for “GIP: incretin GIP (gastrin inhibitory protein) (YAEGTFISDYSIAMDKIHQQDFVNWLLAQKGKKNDWKHNITQ; Gastric inhibitory polypeptide; UniProt P09681 52-93, looked up)” here?
**A.** Its value is “trigger beta cell replication”.

**Q.** And the “replication of primary rat beta cells, GIP combined with GSK3 inhibitor CHIR99021” value (primary rat beta cells; FIG. 14)?
**A.** The value was “cooperative effects”.

**Q.** Which “induction of Pax4 expression (in words)” value (Pax4 [1]) does the source give for `CC(=O)O/N=C1/C(=C2/C(=O)Nc3cc(Br)ccc32)Nc2ccccc21` [(2′Z,3′ E)-6-Bromoindirubin-3′-acetoxime] here?
**A.** The value was “induction of Pax4 expression was also found”.

**Q.** `O=C1Cc2c([nH]c3ccc(Br)cc23)-c2ncccc2N1` [1-Azakenpaullone] was tested. Which “Pax4 RNA levels compared with technical control activin-A” value (Pax4 [2]) did it give?
**A.** Its value is “induces higher Pax4 RNA levels than activin-A”.

**Q.** And the “time course of Pax4 RNA levels” value (Pax4 [2])?
**A.** Its value is “transiently up-regulates Pax4 RNA levels”.

**Q.** And the “cell morphology by microscopy, signs of cell death” value (INS-1E cells; INS-1E exposed to toxic agents (Pal/Gluc), FIG. 8)?
**A.** The value was “partially antagonizes this effect”.

**Q.** And the “inhibition of glucolipotoxicity induced apoptosis” value (INS-1E cells; INS-1E, glucose at 25 nM and palmitate at 0.04 nM for 24 hours, 10 μM compound 1 hour before, FIG. 7B)?
**A.** The value was 25%.

**Q.** And the inhibition at 10 µM (INS-1E cells; Rattus norvegicus, INS-1E, IL-1 beta 4 ng/ml and IFN-gamma 1 U/ml for 24 hours, 10 μM compound 1 hour before, FIG. 7A, read-out: inhibition of cytokine-induced apoptosis)?
**A.** Its inhibition at 10 µM is 60%.

**Q.** And the “induction of relative Pax4 expression” value (Pax4 [1]; 3 μM)?
**A.** The value was “about 6 fold”.

**Q.** Which “induction of Pax4 expression (in words)” value (Pax4 [1]) does the source give for `COc1ccc(CNC(=O)Nc2ncc([N+](=O)[O-])s2)cc1` [GSK-3 inhibitor VIII, N-(4-Methoxybenzyl)-N′-(5-nitro-1,3-thiazol-2-yl)urea] here?
**A.** The value was “induction of Pax4 expression was also found”.

**Q.** For `O=C1Nc2cc(Br)ccc2/C1=C1/Nc2ccccc2/C1=N\O` [(2′Z,3′E)-6-Bromoindirubin-3′-oxime], which “induction of Pax4 expression (in words)” value (Pax4 [1]) is on record?
**A.** The value was “induction of Pax4 expression was also found”.

**Q.** With NGF: nerve growth factor as the molecule, how does the “replication of primary rat beta cells, growth factor combined with GSK3 inhibitor 1-Azakenpaullone” value (primary rat beta cells; FIG. 12) read?
**A.** The value was “potentiate the growth promoting effects”.

**Q.** What about the “replication … agent alone” value (primary rat beta cells) of the same molecule?
**A.** Its value is “not sufficient to trigger beta cell replication”.

**Q.** `O=C1Cc2c([nH]c3ccc([N+](=O)[O-])cc23)-c2ccccc2N1` [Alsterpaullone] was tested. Which “induction of relative Pax4 expression compared to the control” value (Pax4 [1]; 20 μM) did it give?
**A.** The value was “about 7 fold”.

**Q.** For `Cc1c[nH]c(-c2cnc(NCCNc3ccc(C#N)cn3)nc2-c2ccc(Cl)cc2Cl)n1` [CHIR99021], which “replication … agent alone” value (primary rat beta cells) is on record?
**A.** The value was “trigger beta cell replication; also recorded: promotes replication of primary rat beta cells”.

B1: BMP 7: TGF-beta family member (protein, UniProt P18075 293-431, looked up)
Bone morphogenetic protein 7: STGSKQRSQNRSKTPKNQEALRMANVAENSSSDQRQACKKHELYVSFRDLGWQDWIIAPEGYAAYYCEGECAFPLNSYMNATNHAIVQTLVHFINPETVPKPCCAPTQLNAISVLYFDDSSNVILKKYRNMVVRACGCH
**Q.** With B1 as the molecule, how does the “stimulation of Pax4 transcription relative to activin A (in words)” value (Pax4 [1]) read?
**A.** Its value is “hardly induced Pax4 gene transcription”.

B2: BMP 4: TGF-beta family member (protein, UniProt P12644 293-408, looked up)
Bone morphogenetic protein 4: SPKHHSQRARKKNKNCRRHSLYVDFSDVGWNDWIVAPPGYQAFYCHGDCPFPLADHLNSTNHAIVQTLVNSVNSSIPKACCVPTELSAISMLYLDEYDKVVLKNYQEMVVEGCGCR
**Q.** Which “stimulation of Pax4 transcription relative to activin A (in words)” value (Pax4 [1]) does the source give for B2 here?
**A.** Its value is “hardly induced Pax4 gene transcription”.

B3: activin-A: technical control previously shown to activate Pax4 transcription in rat islets (protein, UniProt P08476 311-426, looked up)
Inhibin beta A chain: GLECDGKVNICCKKQFFVSFKDIGWNDWIIAPSGYHANYCEGECPSHIAGTSGSSLSFHSTVINHYRMRGHSPFANLKSCCVPTKLRPMSMLYYDDGQNIIKKDIQNMIVEECGCS
modifications: Inhibin beta A chain
**Q.** How did the “time course of Pax4 RNA levels” value (Pax4 [2]) turn out when B3 was run?
**A.** The value was “more sustained increase in Pax4 RNA levels”.

B4: activin AB: protein related to activin A (protein, UniProt P08476 311-426; P09529 293-407, looked up)
Inhibin beta A chain: GLECDGKVNICCKKQFFVSFKDIGWNDWIIAPSGYHANYCEGECPSHIAGTSGSSLSFHSTVINHYRMRGHSPFANLKSCCVPTKLRPMSMLYYDDGQNIIKKDIQNMIVEECGCS
Inhibin beta B chain: GLECDGRTNLCCRQQFFIDFRLIGWNDWIIAPTGYYGNYCEGSCPAYLAGVPGSASSFHTAVVNQYRMRGLNPGTVNSCCIPTKLSTMSMLYFDDEYNIVKRDVPNMIVEECGCA
**Q.** For B4, which “stimulation of Pax4 transcription relative to activin A (in words)” value (Pax4 [1]) is on record?
**A.** The value was “almost equally potent in stimulating Pax4 transcription as activin A”.

B5: betacellulin: growth factor (protein, UniProt P35070 32-111, looked up)
Betacellulin: DGNSTRSPETNGLLCGDPEENCAATTTQSKRKGHFSRCPKQYKHYCIKGRCRFVVAEQTPSCVCDEGYIGARCERVDLFY
modifications: Betacellulin
notes: growth factor
**Q.** How did the “replication … agent alone” value (primary rat beta cells) turn out when B5 was run?
**A.** The value was “does not influence replication of primary rat beta cells”.
